Some test systems named below: CCRF-CEM; DU-145; EKVX; HL-60; HOP-62; K562; M14; MCF7; MDA-MB-231; NCI-H226; OVCAR-5; RPMI-8226; RXF 393; SF-539; SK-MEL-2; SK-OV-3; SW-620; TK-10; UACC-62; SR.
Common to all, as to assay: growth of human tumour cells (NCI), 48 h

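48-hour exposure; five concentrations; linearly interpolated endpoints. Here, GI50 denotes the concentration required for 50% inhibition of growth.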 Activity calls are given as the source filed them. Rule as the data show it: active = GI50 up to about 1.1 µM and inactive = higher. Where a SMILES comes first, the peptide text is derived from it. Bounds are passed on as bounds.

On to `Cc1cn2c(/C=N/NC(=N)N)c(-c3ccc(Cl)c([N+](=O)[O-])c3)nc2s1`, for which the GI50 in the test with CCRF-CEM is 0.267 µM (active); in the test with DU-145 it was 1.79 µM (inactive); with EKVX it was 0.776 µM (active); in the test on HL-60, 0.116 µM (active); in the test with HOP-62, 1.54 µM (inactive); in the test with K562, 0.257 µM (active). Also, the GI50 in the test with M14 was 1.63 µM (inactive); with MCF7 it was 0.895 µM (active); in the test with MDA-MB-231, 1.13 µM (inactive); in the test with NCI-H226, 1.89 µM (inactive); in the test with OVCAR-5 it was 1.17 µM (inactive); in the test on RPMI-8226 it was 0.904 µM (active). Also, the GI50 in the test on RXF 393 is 0.59 µM (active); with SF-539, 1.73 µM (inactive); in the test with SK-MEL-2, 0.647 µM (active); with SK-OV-3, 1.76 µM (inactive); in the test with SW-620, 0.244 µM (active); in the test with TK-10, 1.68 µM (inactive). For the same compound, in the test on UACC-62, the GI50 was 1.78 µM (inactive).

With `N#CC1C(=O)NC(=O)C(C#N)C1c1ccc(Cl)c(Cl)c1` (configuration not stated), the GI50 was 13.6 µM (inactive) with CCRF-CEM; 37.5 µM (inactive) in the test with DU-145; > 100 µM (inactive) in the test on EKVX; 35.4 µM (inactive) with HL-60; 20.4 µM (inactive) in the test on HOP-62; 28.8 µM (inactive) in the test on K562. Besides, the GI50 was 23.4 µM (inactive) with M14; 34.4 µM (inactive) with MCF7; < 0.01 µM (active) in the test on MDA-MB-231; 23.4 µM (inactive) with OVCAR-5; 21 µM (inactive) in the test with RXF 393; 19.4 µM (inactive) in the test on SF-539. For the same compound, the GI50 in the test on SK-MEL-2 is 80.2 µM (inactive); with SK-OV-3, > 100 µM (inactive); in the test with SR, 18.2 µM (inactive); in the test with SW-620, 16.7 µM (inactive); in the test on TK-10, 35.3 µM (inactive).

`CC(=O)c1c2c(cc3c1CC1(Cc4cc5c(cc4C1=O)CCC5)C3)CCC2` (configuration not stated): the GI50 with CCRF-CEM is 14.6 µM (inactive); in the test on DU-145, > 72.3 µM (inactive); in the test with EKVX, 36.1 µM (inactive); in the test with HL-60, 7.21 µM (inactive); in the test with HOP-62, > 100 µM (inactive); in the test on K562, 14 µM (inactive). In addition, the GI50 was > 68.1 µM (inactive) in the test on M14; 35.7 µM (inactive) with MCF7; 40.2 µM (inactive) in the test with MDA-MB-231; 34.3 µM (inactive) in the test on NCI-H226; > 100 µM (inactive) with OVCAR-5; 10.5 µM (inactive) in the test with RPMI-8226. The GI50 is > 100 µM (inactive) with SF-539; 79.8 µM (inactive) in the test with SK-MEL-2; > 87.7 µM (inactive) with SK-OV-3; 6.64 µM (inactive) with SR; 85.5 µM (inactive) in the test with SW-620; > 66.1 µM (inactive) with TK-10. In addition, the GI50 in the test on UACC-62 was > 100 µM (inactive).

In the case of `CC(=O)C1(O)Cc2c(O)c3c(c(O)c2C(OC2CC(N)C(O)C(C)O2)C1)C(=O)c1ccccc1C3=O` (configuration not stated), the GI50 is 0.01 µM (active) in the test on CCRF-CEM; 0.0221 µM (active) in the test with DU-145; 0.193 µM (active) in the test on EKVX; 0.00206 µM (active) in the test on HL-60; 0.0141 µM (active) in the test with HOP-62; 0.083 µM (active) in the test with K562. In addition, the GI50 with M14 was 0.0452 µM (active); in the test with MCF7, 0.00458 µM (active); in the test with MDA-MB-231, 0.252 µM (active); in the test with NCI-H226, 0.0163 µM (active); in the test with OVCAR-5, 0.141 µM (active); in the test on SF-539, 0.0163 µM (active). Also, the GI50 in the test with SK-MEL-2 is 0.415 µM (active); in the test on SK-OV-3, 0.161 µM (active); in the test with SR, 0.0292 µM (active); with SW-620 it was 0.0221 µM (active); in the test with TK-10 it was 0.053 µM (active); in the test with UACC-62, 0.0303 µM (active).

As to `COC(=O)Nc1nc2cc(S(=O)(=O)NC(CC(C)C)C(=O)OC)ccc2[nH]1` (configuration not stated), the GI50 in the test with CCRF-CEM is 3.52 µM (inactive); in the test on DU-145, 2.43 µM (inactive); in the test on EKVX it was 3.93 µM (inactive); in the test with HL-60 it was 2.69 µM (inactive); with HOP-62, 3.48 µM (inactive); in the test with K562, 3.06 µM (inactive). For the same compound, the GI50 in the test with M14 is 1.8 µM (inactive); with MCF7, 1.65 µM (inactive); with MDA-MB-231, 6.32 µM (inactive); in the test with NCI-H226, 10.8 µM (inactive); in the test with OVCAR-5, 3.87 µM (inactive); in the test on RPMI-8226, 3.28 µM (inactive). Further, the GI50 was 3.21 µM (inactive) in the test on RXF 393; 4.48 µM (inactive) in the test on SF-539; 8.83 µM (inactive) in the test on SK-MEL-2; 4.53 µM (inactive) with SK-OV-3; 3.25 µM (inactive) in the test on SW-620; 6.47 µM (inactive) in the test on TK-10. In the test on UACC-62, the GI50 was 4.01 µM (inactive).

Consider `CCC(C)C(NC(=O)C1CCCN1C(=O)C(CC(C)C)NC(=O)C(CC(C)C)NC(=O)C(N)CC(C)C)C(=O)NC(C(=O)NCC(=O)NC(CC(N)=O)C(=O)NC(CC(C)C)C(=O)NC(CC(C)C)C(=O)NC(CC(C)C)C(N)=O)C(C)C` (configuration not stated) (H-LLLPIVGNLLL-NH2; configuration not given here), for which the GI50 with CCRF-CEM, in the test with DU-145, with EKVX, in the test with HL-60, in the test with HOP-62 and in the test with M14 was > 50 µM (inactive) throughout. For the same compound, the GI50 in the test with MCF7, in the test with MDA-MB-231, with NCI-H226, with OVCAR-5, in the test on RPMI-8226 and in the test with SF-539 was > 50 µM (inactive) throughout. Also, the GI50 with SK-MEL-2, with SK-OV-3, in the test with SR, with SW-620, with TK-10 and in the test on UACC-62 was > 50 µM (inactive) in each case.

For `O=C(NP(=O)(N1CC1)N1CC1)c1cc(I)ccc1I` [DIIODBENZOTEPH], the GI50 in the test with CCRF-CEM was 4.86 µM (inactive); in the test with DU-145, 15.6 µM (inactive); in the test with EKVX, 78 µM (inactive); with HL-60, 5.06 µM (inactive); in the test with HOP-62 it was 19.1 µM (inactive); in the test on K562, 59 µM (inactive). Further, the GI50 is 34.8 µM (inactive) in the test with M14; 38 µM (inactive) in the test with MCF7; > 100 µM (inactive) in the test on MDA-MB-231; 46.1 µM (inactive) in the test with NCI-H226; > 84.1 µM (inactive) in the test with OVCAR-5; 52.7 µM (inactive) with RPMI-8226. Besides, the GI50 with RXF 393 was 34.6 µM (inactive); in the test with SF-539 it was 23.9 µM (inactive); in the test on SK-MEL-2 it was 61 µM (inactive); in the test on SK-OV-3, 25.6 µM (inactive); in the test on SW-620, 67.5 µM (inactive); with TK-10, > 100 µM (inactive). The GI50 in the test with UACC-62 is 10.4 µM (inactive).

Turning to `CC1(C)CC(O)CC(C)(C)N1O` [TEMPOL HYDROXYLAMINE], the GI50 with CCRF-CEM, in the test with DU-145, with EKVX, with HOP-62, in the test on K562 and in the test on M14 was > 100 µM (inactive) each time. Besides, the GI50 in the test on MCF7, with MDA-MB-231, in the test on OVCAR-5, with RPMI-8226, in the test with RXF 393 and with SF-539 was > 100 µM (inactive) in each case. The GI50 with SK-MEL-2, in the test with SK-OV-3, with SR, in the test with SW-620, with TK-10 and in the test on UACC-62 was > 100 µM (inactive) throughout.

These data come from ChEMBL document CHEMBL1201862, “PubChem BioAssay data set” (2004).
